Source: patent US8012944B2, “Method for treating cancer using IAP antisense oligomer and chemotherapeutic agent” (Pharmascience Inc., priority 2003, dated 2011)
Oligonucleotides are written 5' to 3', each unit as a sugar letter and its base; * is a phosphorothioate linkage, no mark a phosphodiester; rarer units and linkages stand in square brackets, end groups in braces. Plain capitals give the bases only. d = 2'-deoxy (DNA)

What was measured:
[1] = mouse, in vivo
Text: (§1) Mice were observed daily. Body weight measurements and signs of stress (e.g., lethargy, ruffled coat, ataxia) were used to detect possible toxicities. Animals with ulcerated tumor, or tumor volumes of 1 cm^3 or greater were killed. Digital caliper measurements of tumors were converted into mean tumor size (cm^3) using the formula: ½[length (cm)]×[width (cm)]^2. An average tumor size per mouse was used to calculate the group mean tumor size±SE (n=6 mice) from at least two independent experiments per group.

[2] = test system: subcutaneous H460 human non-small-cell lung tumor xenografts; test: Systemic (i.p.) oligonucleotides with or without vinorelbine in H460 xenografts; assay type: in vivo, SCID-RAG2 mice; conditions: for antitumor efficacy on H460 xenografts (in words): systemic, oligonucleotide 15 mg/kg i.p., VNB 5 or 10 mg/kg i.v.
Method: (§2) Initial systemic PS-oligonucleotide studies were designed without any chemotherapeutic agents. SCID-RAG2 mice were inoculated with H460 human lung carcinoma cells (s.c. shoulder injection of 10^6 cells) and treatments with G4 and F3 AS PS-oligonucleotides, as well as a scrambled control, were initiated three days after tumor inoculation. Nucleobase oligomer injections were administered i.p. at 12.5 mg/kg three times a week for three weeks. At the end of the treatment period, mean tumor sizes in the groups treated with either G4 or F3 AS oligonucleotides were ˜50% smaller than in the group treated with a scrambled control oligonucleotides (FIG. 15). The same treatment protocol was tested on female SCID-RAG2 mice inoculated orthotopically with MDA-MB-435/LCC6 human breast carcinoma cells. Two weeks after the last treatment (day 35) tumor volumes of mice treated with F3, C5 or G4 AS oligonucleotides were 70%, 60%, and 45%, respectively, smaller than vehicle controls (FIG. 16).
We conducted additional examination of the antitumor effects of G4 AS oligonucleotides in SCID-RAG2 mice bearing xenografts of H460 human non-small-cell lung tumors implanted subcutaneously. Saline-treated control tumors grew reproducibly to a size of 0.75 cm^3 within approximately 24 days (FIG. 17). Oligonucleotide treatments were initiated three days after tumor cell inoculation. G4 AS oligonucleotides (5 to 15 mg/kg) were administered using a treatment schedule of i.p. injections given once a day on days 3-7, 10-14, and 17-21. The treatment with 5 or 15 mg/kg G4 AS oligonucleotides greatly delayed tumor growth: on day 24 mean tumor sizes were 0.75, 0.45 and 0.29 cm^3 in control, 5 and 15 mg/kg treated groups, respectively (FIG. 18A). There was a dose-dependent inhibition of tumor growth. […] A dose of 15 mg/kg was selected for the future combination treatment regimens with anticancer drugs.
The human non-small cell lung cancer cell line (large cell type) NCI-H460 (H460) was obtained from ATCC and maintained in RPMI 1640 supplemented with 10% FCS at 37° C. in a humidified atmosphere containing 5% CO2. Cells were used in exponential growth phase, up to a maximum of 25 in vitro passages. Male SCID-RAG2 mice (7-9 weeks old, 23-26 g) were obtained from British Columbia Cancer Agency Joint Animal Facility breeding colony and kept in aseptic environments. A tumor model of NCI-H460 cells in SCID-RAG2 mice was established by subcutaneous implantation of 1×10^6 NCI-H460 cells on the back of mice.
(§3) Efficacy experiments were conducted in male RAG2 immunodeficient mice bearing NCI-H460 tumours or female RAG2 mice bearing LCC6 tumors. Treatments were commenced on day 3 after tumor inoculation. Saline (controls), G4 AS oligonucleotides (5 or 15 mg/kg), or G4 SC oligonucleotides (5 or 15 mg/kg) were administered i.p. daily for five doses a week over a three week regimen. Vinorelbine (VNB, 5 or 10 mg/kg) was administered i.v. via the tail vein, either alone or in combination with oligonucleotides, at day 3, 7, 11 and 17 after tumor inoculation. When oligonucleotides were administered in combination with VNB, the drug treatment was performed four hours after ODN treatment.
as §1

[3] = test system: MDA-MB-435/LCC6 human breast carcinoma xenografts; test: Systemic (i.p.) PS-oligonucleotides in LCC6 breast carcinoma xenografts; assay type: in vivo, female SCID-RAG2 mice; conditions: 12.5 mg/kg i.p.; day 35, two weeks after the last treatment
Method: as §2, §3

Bcl-2 and Bax = test: Bcl-2:Bax ratio in H460 cells (western blot); assay type: cell-based, human; conditions: 1.2 μM
Method: FIGS. 11A and 11B are schematic illustrations showing XIAP oligonucleotide-mediated effects on caspase activation. The effect of XIAP oligonucleotides F3, G4, or C5, or their respective RP and SC ODN controls at 1.2 μM on the expression of pro-caspase-3, PARP (both full length (116 kDa) and processed (85 kDa)) (FIG. 10A) and Bcl-2 and Bax protein levels (FIG. 10B) in transfected H460 cells compared to control is shown. Proteins expression was analyzed by western blotting. Bcl-2 and Bax protein levels were normalized to cellular actin levels and quantified by densitometry. […]
The cells or tumor tissue samples were lysed with ice-cold lysis buffer (50 mM Tris, 150 mM NaCl, 2.5 mM EDTA, 0.1% SDS, 0.5% sodium deoxycholate, 1% NP-40, 0.02% sodium azide) containing protease inhibitors (Complete-Mini protease inhibitor tablets; Boehringer Mannheim GmBH, Mannheim, Germany). […] Protein content in the lysed extracts was determined using a detergent-compatible Bio-Rad assay (Bio-Rad Labs, Hercules, Calif.). […] Proteins were detected by enhanced chemiluminescence (ECL; Amersham Pharmacia Biotech, Buckinghamshire, England) and visualized after exposure to Kodak autoradiography film. Scanning densitometry (Molecular Dynamics, Sunnyvale, Calif.) was performed to quantify band intensities by volume/area integration. […]

XIAP protein [4] = test: XIAP protein knock-down in H460 cells (western blot, densitometry); assay type: cell-based, human
Method: FIGS. 3 and 4 are graphs showing the effects of 4×4 mixed backbone (MBO) FG8 or E12 oligonucleotides in amounts of 31 nM (FIG. 3) or 63 nM (FIG. 4). H460 lung carcinoma cells were transfected for 18 hours on one, two, or three consecutive days using 125 nM MBOs and Lipofectamine 2000. Samples for western analysis were harvested at the indicated time. Scanning densitometry was performed, and XIAP protein levels were normalized to GAPDH and compared to a mock control set to 100%. The indicated percentages express % XIAP protein knockdown versus specific scrambled controls.
(§4) One day prior to transfection, H460 cells were plated in 6- or 96-well tissue culture plates. Phosphorothioate antisense oligonucleotides were delivered into cells with Lipofectamine 2000 (Life Technologies) in the form of liposome-oligonucleotide complexes. Following a 4.5 or 6 h transfection, the transfection medium was replaced with RPMI medium containing 10% FBS, and the cells incubated for another 24 or 48 h.
(§5) The cells or tumor tissue samples were lysed with ice-cold lysis buffer (50 mM Tris, 150 mM NaCl, 2.5 mM EDTA, 0.1% SDS, 0.5% sodium deoxycholate, 1% NP-40, 0.02% sodium azide) containing protease inhibitors (Complete-Mini protease inhibitor tablets; Boehringer Mannheim GmBH, Mannheim, Germany). After incubation for 30 min on ice, samples were centrifuged at 10,000 rpm for 15 min, and stored at −20° C. Protein content in the lysed extracts was determined using a detergent-compatible Bio-Rad assay (Bio-Rad Labs, Hercules, Calif.). Equal amounts of protein (40 μg/lane) were separated on 12% SDS-polyacrylamide gels or 4-15% gradient SDS-polyacrylamide pre-made gels (Bio-Rad) and transferred to nitrocellulose membranes. Primary antibodies against XIAP, Bcl-2 (DAKO, Glostrup, Denmark), Bax (Sigma, St. Louis, Mo.), β-actin (Sigma), caspase-3 (BD PharMingen, San Diego, Calif.), and PARP (BD PharMingen) were used. The secondary antibody was the appropriate horseradish-conjugated anti-mouse or anti-rabbit IgG (Promega, Madison, Wis.). Proteins were detected by enhanced chemiluminescence (ECL; Amersham Pharmacia Biotech, Buckinghamshire, England) and visualized after exposure to Kodak autoradiography film. Scanning densitometry (Molecular Dynamics, Sunnyvale, Calif.) was performed to quantify band intensities by volume/area integration. The amount of XIAP, caspase-3, Bcl-2 and Bax in cells was normalized to their respective lane β-actin levels, upon stripping and reprobing.

pro-caspase-3, PARP = test: Pro-caspase-3 and PARP protein in H460 cells (western blot); assay type: cell-based, human; conditions: 1.2 μM
Method: as §4, §5

XIAP protein [5] = test: XIAP protein knock-down in T24 cells (XIAP ELISA, relative to total protein); assay type: cell-based, human
Procedure, shortened: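 T24 bladder carcinoma cells transfected with antisense oligonucleotides using Lipofectamine plus in serum-free, antibiotic-free McCoy's medium for three hours, then serum added. XIAP protein measured by colorimetric sandwich ELISA on day 4, normalized to total cellular protein and compared with mock transfection.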

XIAP RNA = XIAP RNA knock-down in T24 cells (TaqMan quantitative PCR); assay type: cell-based, human
Procedure, shortened: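 T24 bladder carcinoma cells (1.5×10^4/well) cultured 24 h in antibiotic-free McCoy's medium, then transfected with antisense oligonucleotides using Lipofectamine-based conditions optimized on survivin knock-down. XIAP mRNA measured by TaqMan RT-qPCR, quantified relative to GAPDH by the comparative Ct method.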

T24 cells = test: Visual inspection of T24 cell morphology after transfection; assay type: cell-based, human; conditions: twenty hours after transfection
Text: The occurrence of cytoxicity induced by oligonucleotide E4 was examined by visually inspecting T24 cells that were left untreated, mock transfected, or transfected with E4, E4 scrambled, E4 reverse polarity, or E4 mismatched oligonucleotides. Twenty hours after transfection, the cells were examined for morphology (FIG. 5D).

XIAP mRNA = XIAP mRNA knock-down in H460 cells (real-time RT-PCR / TaqMan); assay type: cell-based, human
Procedure, shortened: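 NCI-H460 cells transfected with phosphorothioate antisense oligonucleotides via Lipofectamine 2000; RNA isolated after 6 h treatment. XIAP mRNA quantified by one-step TaqMan real-time RT-PCR, comparative Ct (threshold 30× baseline SD), normalized to GAPDH and expressed relative to untreated control cells.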

H460 cells [6] = test: Apoptotic flow cytometric assay (PI staining, hypo-diploid DNA content); assay type: cell-based, human; conditions: 1.2 μM, untreated control 16.6%
Method: Cells were treated with liposome-oligonucleotide complexes for 4.5 h, and incubated for another 48 h in the medium without transfection reagent at 37° C. Following incubation, cells were harvested, washed twice with sample buffer (0.5% glucose in PBS without Ca^++ and Mg^++), and fixed in cold 70% ethanol at 4° C. for at least 18 hrs. Samples were centrifuged at 3000 rpm for 10 min, then resuspended in sample buffer containing 50 μg/ml propidium iodide (PI) and 400 U/ml RNase A. Samples were incubated for 30 min at room temperature and 30 min on ice, followed by flow cytometry analysis. EXPO Software (Applied Cytometry Systems, Sacramento, Calif.) was used to generate histograms, which were used to determine the cell cycle phase distribution after debris exclusion. The Sub G1/G0 cell fraction was considered as representative for apoptotic cells.

H460 cells [7] = test: Nuclear morphology (DAPI staining); assay type: cell-based, human; conditions: 1.2 μM
Method: Cells were treated with liposome-oligonucleotde complexes for 4.5 h, and incubated for another 48 h at 37° C. in the medium without transfection reagent or oligonucleotides. Cells were harvested and stained with 0.10 μg/ml DAP1 (4′, 6-diamidino-2-2-phenylindole) for 30 min at room temperature. Cells were placed on a glass slide, cytospun, and viewed with a Leica microscope and 40× objective lens under UV fluorescent illumination. Digital images were captured using Imagedatabase V. 4.01 Software (Leica, Germany).

H460 cells [8] = test: H460 cell growth, viability or death (MTT assay); assay type: cell-based, human; conditions: 1.2 μM
Method: Growth inhibition of […] cells was determined by the colorimetric MTT cell viability/proliferation assay. In brief, cells were treated with liposome-oligonucleotide complexes for 4.5 h, then incubated for another 48 h at 37° C. in medium without transfection reagent or oligonucleotides in the presence or absence of anticancer drugs. MTT (25 μg/well) was added to each well, and the plates incubated for 3 h at 37° C. Following the incubation step, the colored formazan product was dissolved by the addition of 200 μl DMSO. Plates were read using the microtiter plate reader (Dynex Technologies Inc., Chantilly, Va.) at a wavelength of 570 nm. The percentage of surviving cells in wells treated with oligonucleotides was normalized to untreated controls. All assays were performed in triplicate.

Compound: CCC1=C[C@@H]2CN(C1)Cc1c([nH]c3ccccc13)[C@@](C(=O)OC)(c1cc3c(cc1OC)N(C)[C@H]1[C@@](O)(C(=O)OC)[C@H](OC(C)=O)[C@]4(CC)C=CCN5CC[C@]31[C@@H]54)C2 [VNB, vinorelbine, reference compound]
- signs of toxicity in mice [1]: without showing significant signs of undesirable toxicity
- average tumor size ([2]; day 29, VNB 5 mg/kg, oligonucleotides 15 mg/kg): 0.59±0.04 cm^3
- antitumor efficacy on H460 xenografts (in words) [2]: significant tumor growth suppression

Compound: ATCTTCTCTTGAAAATAGG (DNA, all phosphorothioate, methylation of C not given here) [F3 AS]
- tumor volumes smaller than vehicle controls [3]: 70%
- ratio of Bcl-2:Bax (Bcl-2 and Bax): unchanged
- reduction of XIAP protein level (XIAP protein [4]; 1.2 μM, 24 h after the end of transfection): 50%
- reduction of pro-caspase-3 protein levels compared to untreated control (pro-caspase-3, PARP): 40%
- mean tumor size smaller than scrambled control group ([2]; PS-oligonucleotides 12.5 mg/kg i.p. three times a week for three weeks, end of treatment): ~50%

Compound: CGCACGGTATCTCCTTCAC (antisense; chemistry not fully specified) [Code E4]
- XIAP down-regulation T24 protein (XIAP protein [5]): 34%
- XIAP protein levels relative to total protein, compared to mock transfection (in words) (XIAP protein [5]; first screen of the library): some decrease
- XIAP down-regulation T24 RNA (XIAP RNA): 47%
- signs of toxicity (cell morphology) (T24 cells): showed signs of toxicity
- XIAP down-regulation H460 RNA (XIAP mRNA): 51%

Compound: GGCTCTTTGCCCACTGAAT (dG*dG*dC*dT*dC*dT*dT*dT*dG*dC*dC*dC*dA*dC*dT*dG*dA*dA*dT) [G4 SC, reference compound]
- hypo-diploid DNA content of cells (H460 cells [6]): 22.1%
- nuclear morphological changes characteristic of apoptosis (H460 cells [7]): Few cells showed these morphological changes
- effect on XIAP protein levels (in words) (XIAP protein [4]): little XIAP loss
- effect on caspase-3 or PARP protein expression (pro-caspase-3, PARP): did not have any effect
- cell death (H460 cells [8]; H460 cells): less than 10%
- reduction of H460 cell growth relative to untreated control (H460 cells [8]; MTT, 48 hours after transfection): less than 10%
- tumors reduced in size, % of control tumors ([2]; 15 mg/kg, day 21 or 24): 24%
- antitumor efficacy on H460 xenografts (in words) [2]: no therapeutic activity
